Patent publication US8354447B2, “mGLU receptors antagonists for treating disorders associated with mGLU receptors including addiction and depression” (The Scripps Research Institute, priority 2002, dated 2013)
Counter-ions that a name gives are not always drawn. Like-named read-outs stand apart in the source and are kept apart here.

Tests used:
male Wistar rats [1] = tested on: male Wistar rats
Excerpt: Animals were trained to respond according to a modification of the discrete-trial current-threshold procedure of Kornetsky and Esposito (Fed Proc 38:2473-2476, 1979), which has been described in detail previously (Markou and Koob, 1992 Physiol Behav 51:111-119). Briefly, a trial was initiated by the delivery of a non-contingent electrical stimulus. […] The current intensity delivered was adjusted for each animal and typically ranged from 50 to 200 μA. […] After a variable inter-trial interval (7.5-12.5 sec, average of 10 sec), another trial was initiated with the delivery of a non-contingent electrical stimulus. […] Responding during the inter-trial interval delayed the onset of the next trial by 12.5 sec. Current levels were varied in alternating descending and ascending series. A set of three trials was presented for each current intensity. Current intensities were altered in 5 μA steps. In each testing session, four alternating descending-ascending series were presented. […] The overall threshold of the session was defined as the mean of the thresholds for the four individual series. Each testing session was ˜30 min in duration. The latency between the onset of the non-contingent stimulus and a positive response was recorded as the response latency. The response latency for each test session was defined as the mean response latency of all trials during which a positive response occurred. After establishment of stable ICSS reward thresholds, rats were tested in the ICSS procedure once daily except for the spontaneous nicotine withdrawal experiment when rats were tested at time-points according to the experimental design.
Systemic administration experiments. These experiments investigated whether nicotine withdrawal, as measured by elevations in ICSS thresholds, could be precipitated in nicotine-treated rats by systemic administration of an agonist at mGluII receptors (LY314582), an agonist at GABAB receptors (CGP44532), or antagonists at mGlu5 (MPEP), NMDA (MK-801) or AMPA/Kainate (NBQX) glutamate receptors. For each drug tested, rats were trained in the ICSS paradigm until stable baseline responding was achieved, defined as ≦10% variation in thresholds for 3 consecutive days and requiring approximately 14 days of daily testing. […] One group was then prepared with subcutaneous osmotic mini-pumps delivering vehicle and the second group with mini-pumps delivering 9 mg/kg/day nicotine hydrogen tartrate (3.16 mg/kg/day nicotine free base). There was a minimum seven-day interval after mini-pump implantation, during which ICSS reward thresholds continued to be measured daily, before the effect of any systemically administered drug on reward thresholds was evaluated.

drug-naïve rats = details: previous studies (Harrison et al., 2002; Macey et al., 2001); cited from earlier work
male Wistar rats [2] = assay: Reward deficits during amphetamine withdrawal (ICSS thresholds, response latencies, body weight)
Description: Male Wistar rats (Charles River, Hollister, Calif.) (300-320 g at the start of the experiments) were housed in pairs in a temperature and humidity controlled environment with a 12 hr light/dark cycle. Food and water were available ad libitum. A different set of subjects was used for each experiment. All subjects were treated in accordance with the National Institutes of Health “Guide for the Care and Use of Laboratory Animals,” and the animal facilities and the experimental protocols were in accordance with the Association for the Assessment and Accreditation of Laboratory Animal Care. Most of the behavioral testing was conducted during the light phase of the subjects' light/dark cycle, unless otherwise dictated by the experimental design due to time-course assessment of behavioral parameters. Apparatus The experimental apparatus consisted of 16 Plexiglas chambers (30.5×30×17 cm) (Med Associates Inc., St. Albans, Vt.) encased in sound-attenuating boxes (San Diego Instruments, San Diego, Calif.). Each operant chamber consisted of a stainless steel grid floor and a metal wheel manipulandum located on one wall, which required a 0.2 N force to rotate it a quarter turn. Gold-contact swivel commutators and bipolar leads connected the animals in the stimulation circuit (Plastics One, Roanoke, Va.). Brain stimulation was administered by constant current stimulators (Stimtek 1200, San Diego Instruments, San Diego, Calif.). Surgical Procedure The rats were prepared with 11 mm stainless steel bipolar electrodes (Plastics One; diameter=0.25 mm) in the posterior lateral hypothalamus (AP −0.5 mm from bregma; L±1.7 mm; DV −8.3 mm from dura, with the incisor bar set at 5 mm above the interaural line; Pellegrino et al. 1979 under halothane anaesthesia (1-1.5% halothane/oxygen mixture). Subjects were allowed to recover for at least seven days before any behavioral testing. Half of the electrodes were positioned on the right hemisphere and the other half on the left hemisphere to counterbalance possible brain asymmetries. […] The subjects were initially trained to turn the wheel manipulandum on a fixed ratio 1 schedule of reinforcement. […] The current intensity delivered was adjusted for each animal and typically ranged from 100 to 200 μA. After successful familiarization with this procedure (2 sessions of 100 reinforcers in less than 20 minutes), the rats were gradually trained on a discrete-trial, current-threshold procedure. At the start of each trial rats received a non-contingent electrical stimulus. During the following 7.5 sec, the limited hold, if the subjects responded by turning the wheel manipulandum a quarter turn (positive response) they received a second, contingent stimulus identical to the previous non-contingent stimulus. During a 2 sec period immediately following a positive response, further responses were recorded as extra responses but had no consequence. If no response occurred during the 7.5 sec limited hold period a negative response was recorded. […] Stimulation intensities were varied according to the classical psychophysical method of limits. The subjects received four alternating series of ascending and descending current intensities starting with a descending series. Within each series the stimulus intensity was altered by 5 μA steps between each set of trials (three trials per set). After training in the above procedure, rats were tested until stable baseline thresholds had been achieved L+10% over a 5-day period). […] During the ascending series, the reverse situation defined the threshold. Thus, during each session, four current-thresholds were recorded and the mean of these values was taken as the current-threshold for each subject for each test session. Response Latency: The latency between the onset of the non-contingent stimulus and a positive response was recorded as the response latency. The response latency for each test session was defined as the mean response latency of all trials during which a positive response occurred. […]

Wistar rats = assay: Cocaine-induced lowering of ICSS thresholds; type: in vivo, rat
[3] = CGP44532 0.065 mg/kg i.p., Nicotine-treated rats
[4] = CGP44532 0.065 mg/kg i.p., Vehicle-treated rats
[5] = CGP44532 0.125 mg/kg i.p., Nicotine-treated rats
[6] = CGP44532 0.125 mg/kg i.p., Vehicle-treated rats
[7] = CGP44532 0.25 mg/kg i.p., Nicotine-treated rats
[8] = CGP44532 0.25 mg/kg i.p., Vehicle-treated rats
[9] = CGP44532 0.5 mg/kg i.p., Nicotine-treated rats
[10] = CGP44532 0.5 mg/kg i.p., Vehicle-treated rats
[11] = MK-801 0.01 mg/kg i.p., Nicotine-treated rats
[12] = MK-801 0.01 mg/kg i.p., Vehicle-treated rats
[13] = MK-801 0.03 mg/kg i.p., Nicotine-treated rats
[14] = MK-801 0.03 mg/kg i.p., Vehicle-treated rats
[15] = MK-801 0.1 mg/kg i.p., Nicotine-treated rats
[16] = MK-801 0.1 mg/kg i.p., Vehicle-treated rats
[17] = MK-801 0.15 mg/kg i.p., Nicotine-treated rats
[18] = MK-801 0.15 mg/kg i.p., Vehicle-treated rats
[19] = MK-801 0.175 mg/kg i.p., Nicotine-treated rats
[20] = MK-801 0.175 mg/kg i.p., Vehicle-treated rats
[21] = MK-801 0.2 mg/kg i.p., Nicotine-treated rats
[22] = MK-801 0.2 mg/kg i.p., Vehicle-treated rats
[23] = chronic amphetamine administration

NS(=O)(=O)c1cccc2c1c([N+](=O)[O-])cc1[nH]c(=O)c(=O)[nH]c12.[Na].[Na] [NBQX, 2,3-dioxo-6-nitro-1,2,3,4-tetrahydrobenzo(f)quinoxaline-7-sulphonamide disodium]
ICSS response Latencies (male Wistar rats [1]; NBQX 0.01-1 mg/kg): had no effect on response latencies in nicotine-treated or control rats at any dose tested
ICSS reward thresholds (male Wistar rats [1]; NBQX 0.01-1 mg/kg): significantly altered ICSS reward thresholds in nicotine-treated but not control rats
ICSS reward thresholds (male Wistar rats [1]; NBQX 0.025-0.1 mg/kg, nicotine-treated rats): elevated reward thresholds in nicotine-treated rats
ICSS reward thresholds (male Wistar rats [1]; NBQX 0.5-1 mg/kg, nicotine-treated rats): did not significantly increase thresholds compared to vehicle treatment

CP(=O)(O)C[C@@H](O)CN [CGP44532, 3-Amino-2-(S)-hydroxypropyl-methyl-phosphinic acid]
dose that elevated ICSS thresholds in drug-naïve rats (drug-naïve rats): ≥ 0.25 mg/kg
ICSS Thresholds (male Wistar rats [1]; [3]): 96.37 ± 3.2 percentage of baseline
ICSS response Latencies (male Wistar rats [1]; [3]): 106.02 ± 8.1 percentage of baseline
ICSS Thresholds (male Wistar rats [1]; [4]): 96.28 ± 3.1 percentage of baseline
ICSS response Latencies (male Wistar rats [1]; [4]): 97.31 ± 3.8 percentage of baseline
ICSS Thresholds (male Wistar rats [1]; [5]): 103.88 ± 7.2 percentage of baseline
ICSS response Latencies (male Wistar rats [1]; [5]): 98.15 ± 5.3 percentage of baseline
ICSS Thresholds (male Wistar rats [1]; [6]): 106.76 ± 3.2 percentage of baseline
ICSS response Latencies (male Wistar rats [1]; [6]): 102.34 ± 2.8 percentage of baseline
ICSS Thresholds (male Wistar rats [1]; [7]): 109.98 ± 5.4 percentage of baseline
ICSS response Latencies (male Wistar rats [1]; [7]): 99.05 ± 3.1 percentage of baseline
ICSS Thresholds (male Wistar rats [1]; [8]): 109.14 ± 5.1 percentage of baseline
ICSS response Latencies (male Wistar rats [1]; [8]): 105.03 ± 3.1 percentage of baseline
ICSS Thresholds (male Wistar rats [1]; [9]): 146.83 ± 14.3 percentage of baseline
ICSS response Latencies (male Wistar rats [1]; [9]): 98.11 ± 5.4 percentage of baseline
ICSS Thresholds (male Wistar rats [1]; [10]): 148.43 ± 16.6 percentage of baseline
ICSS response Latencies (male Wistar rats [1]; [10]): 106.13 ± 6.5 percentage of baseline
ICSS reward thresholds (male Wistar rats [1]; CGP44532 0.5 mg/kg, p<0.001): elevated reward thresholds in nicotine-treated and control rats
ICSS reward thresholds (male Wistar rats [1]; CGP44532 0.065-0.25 mg/kg, nicotine treated rats): did not precipitate reward threshold elevations in nicotine treated rats at the lowest doses tested
ICSS response Latencies (male Wistar rats [1]; CGP44532 0.065-0.5 mg/kg): had no effect on response latencies at any dose tested

C[C@]12N[C@H](Cc3ccccc31)c1ccccc12 [MK-801, (5R,10S)-(+)-5-Methyl-10,11-dihydro-5H-dibenzo(a,d)cyclohepten-5,10-imine hydrogen maleate]
ICSS Thresholds (male Wistar rats [1]; [11]): 98.20 ± 6.1 percentage of baseline
ICSS response Latencies (male Wistar rats [1]; [11]): 95.41 ± 2.3 percentage of baseline
ICSS Thresholds (male Wistar rats [1]; [12]): 95.99 ± 3.3 percentage of baseline
ICSS response Latencies (male Wistar rats [1]; [12]): 100.00 ± 2.5 percentage of baseline
ICSS Thresholds (male Wistar rats [1]; [13]): 93.09 ± 3.9 percentage of baseline
ICSS response Latencies (male Wistar rats [1]; [13]): 94.64 ± 3.6 percentage of baseline
ICSS Thresholds (male Wistar rats [1]; [14]): 92.54 ± 2.6 percentage of baseline
ICSS response Latencies (male Wistar rats [1]; [14]): 103.14 ± 2.1 percentage of baseline
ICSS Thresholds (male Wistar rats [1]; [15]): 89.42 ± 3.6 percentage of baseline
ICSS response Latencies (male Wistar rats [1]; [15]): 106.14 ± 4.4 percentage of baseline
ICSS Thresholds (male Wistar rats [1]; [16]): 88.48 ± 5.6 percentage of baseline
ICSS response Latencies (male Wistar rats [1]; [16]): 98.97 ± 3.9 percentage of baseline
ICSS Thresholds (male Wistar rats [1]; [17]): 76.24 ± 4.7 percentage of baseline
ICSS response Latencies (male Wistar rats [1]; [17]): 93.65 ± 3.6 percentage of baseline
ICSS Thresholds (male Wistar rats [1]; [18]): 87.14 ± 4.6 percentage of baseline
ICSS response Latencies (male Wistar rats [1]; [18]): 101.60 ± 2.0 percentage of baseline
ICSS Thresholds (male Wistar rats [1]; [19]): 82.26 ± 3.7 percentage of baseline
ICSS response Latencies (male Wistar rats [1]; [19]): 93.56 ± 4.2 percentage of baseline
ICSS Thresholds (male Wistar rats [1]; [20]): 93.64 ± 3.4 percentage of baseline
ICSS response Latencies (male Wistar rats [1]; [20]): 119.22 ± 11.9 percentage of baseline
ICSS Thresholds (male Wistar rats [1]; [21]): 84.29 ± 3.0 percentage of baseline
ICSS response Latencies (male Wistar rats [1]; [21]): 105.14 ± 1.9 percentage of baseline
ICSS Thresholds (male Wistar rats [1]; [22]): 82.47 ± 4.3 percentage of baseline
ICSS response Latencies (male Wistar rats [1]; [22]): 119.21 ± 9.4 percentage of baseline
ICSS reward thresholds (male Wistar rats [1]; MK-801 0.01-0.2 mg/kg): lowered reward thresholds in nicotine-treated and control rats
withdrawal-like elevations in reward thresholds (male Wistar rats [1]; MK-801, nicotine-treated rats): did not precipitate withdrawal-like elevations in reward thresholds in nicotine-treated rats at any dose tested
ICSS response Latencies (male Wistar rats [1]; MK-801, p<0.05, particularly in control rats): did significantly increase response latencies
Doses causing disruption in performance in the ICSS paradigm (male Wistar rats [1]; both groups, rats no longer responded for self-stimulation): ≥ 0.2 mg/kg

C[C@H](N)Cc1ccccc1 [amphetamine, d-Amphetamine sulfate]
reward thresholds during amphetamine withdrawal (male Wistar rats [2]; amphetamine-exposed rats treated with vehicle): exhibited elevated thresholds at withdrawal hours 12, 36, 42, 60 and 84
body weight (male Wistar rats [2]; [23]): significantly reduced the body weight of animals
response latencies (male Wistar rats [2]; [23]): did not significantly differ from those of the saline-exposed rats at any stage during chronic drug treatment
reward thresholds (male Wistar rats [2]; chronic amphetamine administration, four day treatment, 1-5 mg/kg three times a day): significantly elevated thresholds

COC(=O)[C@H]1[C@@H](OC(=O)c2ccccc2)C[C@@H]2CC[C@H]1N2C.Cl [cocaine, Cocaine hydrochloride]
ICSS response Latencies (Wistar rats; cocaine 10 mg/kg): significantly decreased ICSS response latencies
ICSS Thresholds (Wistar rats; cocaine 10 mg/kg i.p.): significantly lowered ICSS thresholds
ICSS thresholds, time course (Wistar rats; cocaine 10 mg/kg, at 10 and 40 min after cocaine injection): significantly lowered in cocaine-treated rats, pretreated with vehicle
